Assay results as given in patent US11780830B2, “Triazolone derivatives or salts thereof and pharmaceutical compositions comprising the same” (YUHAN CORPORATION, priority 2018, dated 2023).
Where a name gives a salt, the structure may show the parent alone.

How the values were obtained:
Type in all cases: biochemical
[1] = target: T1, recombinant human MAO-A (monoamine oxidase-A) (Homo sapiens, UniProt P21397); assay: Activity on recombinant human MAO-A, method similar to the VAP-1 assay; conditions: substrate 0.5 mM tyramine; read-out: Inhibitory Activity (IC50, nM) MAO-A
T1 construct: purchased Sigma-Aldrich
T1 sequence (P21397 1-527): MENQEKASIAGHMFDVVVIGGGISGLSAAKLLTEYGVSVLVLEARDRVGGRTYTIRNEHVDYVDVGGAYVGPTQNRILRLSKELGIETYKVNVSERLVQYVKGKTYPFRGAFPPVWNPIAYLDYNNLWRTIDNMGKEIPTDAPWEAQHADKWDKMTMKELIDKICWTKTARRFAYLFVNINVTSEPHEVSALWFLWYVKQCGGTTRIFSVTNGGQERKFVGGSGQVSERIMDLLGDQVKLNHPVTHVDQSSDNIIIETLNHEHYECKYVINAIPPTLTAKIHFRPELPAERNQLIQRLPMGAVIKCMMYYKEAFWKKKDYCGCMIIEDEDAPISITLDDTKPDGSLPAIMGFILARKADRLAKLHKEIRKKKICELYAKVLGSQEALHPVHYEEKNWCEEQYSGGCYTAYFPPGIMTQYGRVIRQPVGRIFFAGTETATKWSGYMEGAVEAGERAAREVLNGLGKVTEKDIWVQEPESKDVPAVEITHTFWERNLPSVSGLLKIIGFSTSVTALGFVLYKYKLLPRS
Method in brief: (§1)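 Fluorescence (544/590 nm) of resorufin formed from Amplex Red by HRP and enzyme-generated H2O2 was followed over 1-2 h. Substrates were 0.5 mM tyramine for MAO-A and 1 mM benzylamine for MAO-B; compounds were preincubated with enzyme for 30 min at 37° C. IC50 came from four-parameter logistic fitting of signal-rate inhibition.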

[2] = target: T2, recombinant human VAP-1 (Homo sapiens, UniProt Q16853); assay: Activity on recombinant human VAP-1, HRP-coupled Amplex Red hydrogen peroxide assay; conditions: substrate 1 mM benzylamine; compound incubated with enzyme at 37° C. for 30 minutes; pH 7.4; read-out: Inhibitory Activity (IC50, nM) human VAP-1
T2 construct: purchased R&D systems
T2 sequence (Q16853 1-763): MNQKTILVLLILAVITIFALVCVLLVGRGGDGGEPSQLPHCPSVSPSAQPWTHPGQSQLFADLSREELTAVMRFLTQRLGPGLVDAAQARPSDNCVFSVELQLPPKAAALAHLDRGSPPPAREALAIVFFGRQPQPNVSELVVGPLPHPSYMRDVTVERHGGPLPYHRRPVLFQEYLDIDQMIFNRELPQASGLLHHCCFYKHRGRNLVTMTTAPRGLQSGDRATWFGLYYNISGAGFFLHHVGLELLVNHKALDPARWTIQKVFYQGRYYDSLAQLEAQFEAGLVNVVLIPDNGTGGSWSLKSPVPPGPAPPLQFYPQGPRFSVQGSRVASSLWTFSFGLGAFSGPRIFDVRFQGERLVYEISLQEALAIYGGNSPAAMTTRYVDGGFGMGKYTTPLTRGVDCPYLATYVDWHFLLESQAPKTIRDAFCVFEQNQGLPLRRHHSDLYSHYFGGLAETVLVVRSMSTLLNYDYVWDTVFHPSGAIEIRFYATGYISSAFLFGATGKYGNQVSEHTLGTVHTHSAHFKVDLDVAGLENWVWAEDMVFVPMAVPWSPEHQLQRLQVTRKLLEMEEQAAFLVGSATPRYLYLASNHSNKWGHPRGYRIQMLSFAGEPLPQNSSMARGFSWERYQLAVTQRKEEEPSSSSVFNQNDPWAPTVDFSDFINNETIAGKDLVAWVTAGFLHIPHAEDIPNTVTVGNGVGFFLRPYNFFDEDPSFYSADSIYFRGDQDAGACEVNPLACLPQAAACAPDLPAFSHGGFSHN
Method in brief: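 Fluorescence of resorufin formed from H2O2 (ex 544 nm, em 590 nm) was tracked for 1-2 h after adding 1 mM benzylamine, 200 uM Amplex Red and 1 U/mL HRP to enzyme pretreated with compound for 30 min at 37 °C. IC50 values derive from four-variable logistic fits.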

[3] = target: T3, recombinant human MAO-B (monoamine oxidase-B) (Homo sapiens, UniProt P27338); assay: Activity on recombinant human MAO-B, method similar to the VAP-1 assay; conditions: substrate 1 mM benzylamine; read-out: Inhibitory Activity (IC50, nM) MAO-B
T3 construct: purchased Sigma-Aldrich
T3 sequence (P27338 1-520): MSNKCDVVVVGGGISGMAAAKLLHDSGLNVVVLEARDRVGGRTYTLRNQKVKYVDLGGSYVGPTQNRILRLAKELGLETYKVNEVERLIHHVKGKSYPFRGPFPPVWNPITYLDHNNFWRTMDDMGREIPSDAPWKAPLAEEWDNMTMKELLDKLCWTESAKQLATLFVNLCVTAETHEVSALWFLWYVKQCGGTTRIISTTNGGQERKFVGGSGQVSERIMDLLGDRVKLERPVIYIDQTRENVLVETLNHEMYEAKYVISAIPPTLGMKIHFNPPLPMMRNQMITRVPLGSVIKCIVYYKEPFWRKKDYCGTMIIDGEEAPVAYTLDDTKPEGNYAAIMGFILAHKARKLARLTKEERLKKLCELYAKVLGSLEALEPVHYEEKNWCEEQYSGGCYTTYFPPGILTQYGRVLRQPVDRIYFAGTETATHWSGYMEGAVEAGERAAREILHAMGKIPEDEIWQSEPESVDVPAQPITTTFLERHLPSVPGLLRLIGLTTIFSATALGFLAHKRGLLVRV
Method in brief: as §1

[4] = target: T4, recombinant human DAO (diamine oxidase) (Homo sapiens, UniProt P19801); assay: Activity on recombinant human DAO, method similar to the VAP-1 assay; conditions: substrate 1 mM putrescine; read-out: Inhibitory Activity (IC50, nM) DAO
T4 construct: purchased R&D systems
T4 sequence (P19801 20-751): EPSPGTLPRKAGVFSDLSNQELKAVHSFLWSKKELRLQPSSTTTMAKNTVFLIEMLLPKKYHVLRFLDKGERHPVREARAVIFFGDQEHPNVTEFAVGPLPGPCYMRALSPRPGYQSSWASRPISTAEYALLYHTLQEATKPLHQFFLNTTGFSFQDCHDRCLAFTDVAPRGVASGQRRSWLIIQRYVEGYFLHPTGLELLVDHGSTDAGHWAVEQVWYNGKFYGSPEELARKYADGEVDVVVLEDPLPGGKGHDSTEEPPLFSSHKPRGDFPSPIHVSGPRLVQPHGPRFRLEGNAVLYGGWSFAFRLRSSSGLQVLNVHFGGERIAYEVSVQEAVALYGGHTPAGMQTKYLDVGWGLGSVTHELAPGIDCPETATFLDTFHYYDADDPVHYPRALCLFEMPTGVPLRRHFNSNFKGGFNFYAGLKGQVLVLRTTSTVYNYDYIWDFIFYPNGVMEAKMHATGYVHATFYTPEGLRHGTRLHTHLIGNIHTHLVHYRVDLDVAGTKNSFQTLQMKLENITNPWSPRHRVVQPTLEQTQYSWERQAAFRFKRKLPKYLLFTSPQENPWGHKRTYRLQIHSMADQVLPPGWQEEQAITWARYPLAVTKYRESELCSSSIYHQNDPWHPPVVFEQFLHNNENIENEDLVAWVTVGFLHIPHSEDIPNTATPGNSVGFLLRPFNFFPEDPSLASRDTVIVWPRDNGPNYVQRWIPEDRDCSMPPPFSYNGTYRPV
Method in brief: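 Inhibition of recombinant human diamine oxidase (DAO, R&D systems) was assessed by the same approach as the VAP-1 assay, using 1 mM putrescine as substrate. Hydrogen peroxide formed was detected through an HRP-coupled Amplex Red reaction yielding fluorescent resorufin, read at 544 nm excitation and 590 nm emission. IC50 values came from four-parameter logistic fitting in GraphPad Prism.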

Row | Compound | IC50 [1] [nM] | IC50 [2] [nM] | IC50 [3] [nM] | IC50 [4] [nM]
1 | Cn1cc(C#Cc2ccc(Cn3cnn(C/C(=C/F)CN)c3=O)s2)cn1 [Example 131, 2-[(2E)-2-(aminomethyl)-3-fluoroprop-2-en-1-yl]-4-(5-[(1-methyl-1H-pyrazol-4-yl)ethynyl]thiophen-2-ylmethyl)-2,4-dihydro-3H-1,2,4-triazol-3-one hydrochloride] | > 100000 | 2.3 | 240 | 1300
2 | NC/C(=C\F)Cn1ncn(Cc2ccc(C#CCN3CCS(=O)(=O)CC3)s2)c1=O [Example 132, 2-[(2E)-2-(aminomethyl)-3-fluoroprop-2-en-1-yl]-4-(5-[3-(1,1-dioxidothiomorpholin-4-yl)prop-1-yn-1-yl]thiophen-2-ylmethyl)-2,4-dihydro-3H-1,2,4-triazol-3-one hydrochloride] | > 100000 | 3.1 | 2500 | 1400
3 | NC/C(=C\F)Cn1ncn(Cc2ccc(C#Cc3ccc4c(c3)CCC(=O)N4)s2)c1=O [Example 133, 6-[2-[5-[[1-[(E)-2-(aminomethyl)-3-fluoro-allyl]-5-oxo-1,2,4-triazol-4-yl]methyl]-2-thienyl]ethynyl]-3,4-dihydro-1H-quinolin-2-one hydrochloride] | 49000 | 0.2 | 180 | 530
4 | NC/C(=C\F)Cn1ncn(Cc2ccc(C#Cc3ccc4c(n3)OCCN4)s2)c1=O [Example 136, 2-[(E)-2-(aminomethyl)-3-fluoro-allyl]-4-[[5-[2-(2,3-dihydro-1H-pyrido[2,3-b][1,4]oxazin-6-yl)ethynyl]-2-thienyl]methyl]-1,2,4-triazol-3-one hydrochloride] | 20000 | 1.5 | 640 | 790
5 | NC/C(=C\F)Cn1ncn(CCc2cccs2)c1=O [Example 141, 2-[(2E)-2-(aminomethyl)-3-fluoroprop-2-en-1-yl]-4-[2-(thiophen-2-yl)ethyl]-2,4-dihydro-3H-1,2,4-triazol-3-one] | > 100000 | 9.2 | > 10000 | 4200
6 | Cn1cc(-c2ccc(Cn3cnn(C/C(=C/F)CN)c3=O)s2)cn1 [Example 142, 2-[(2E)-2-(aminomethyl)-3-fluoroprop-2-en-1-yl]-4-{[5-(1-methyl-1H-pyrazol-4-yl)thiophen-2-yl]methyl}-2,4-dihydro-3H-1,2,4-triazol-3-one] | > 100000 | 2.9 | 1000 | 11000
7 | CC(C)n1cc(-c2ccc(Cn3cnn(C/C(=C/F)CN)c3=O)s2)ccc1=O [Example 143, 5-[5-({1-[(2E)-2-(aminomethyl)-3-fluoroprop-2-en-1-yl]-5-oxo-1,5-dihydro-4H-1,2,4-triazol-4-yl}methyl)thiophen-2-yl]-1-(propan-2-yl)pyridin-2(1H)-one] | > 100000 | 1.4 | 2600 | 1700

Continued, values first:

Row | IC50 [1] [nM] | IC50 [2] [nM] | IC50 [3] [nM] | IC50 [4] [nM] | Compound
8 | 7100 | 2 | 300 | 2100 | NC/C(=C\F)Cn1ncn(Cc2ccc(C#Cc3ccc4c(c3)NCCO4)s2)c1=O [Example 134, 2-[(E)-2-(aminomethyl)-3-fluoro-allyl]-4-[[5-[2-(3,4-dihydro-2H-1,4-benzoxazin-6-yl)ethynyl]-2-thienyl]methyl]-1,2,4-triazol-3-one]
9 | > 100000 | 1.1 | 750 | 1100 | NC/C(=C\F)Cn1ncn(Cc2ccc(C#Cc3cnc4c(c3)NCCO4)s2)c1=O [Example 135, 2-[(E)-2-(aminomethyl)-3-fluoro-allyl]-4-[[5-[2-(2,3-dihydro-1H-pyrido[2,3-b][1,4]oxazin-7-yl)ethynyl]-2-thienyl]methyl]-1,2,4-triazol-3-one]
10 | > 100000 | 1.4 | 390 | 1400 | NC/C(=C\F)Cn1ncn(Cc2ccc(C#Cc3cnc4c(c3)OCCN4)s2)c1=O [Example 137, 2-[(E)-2-(aminomethyl)-3-fluoro-allyl]-4-[[5-[2-(3,4-dihydro-2H-pyrido[3,2-b][1,4]oxazin-7-yl)ethynyl]-2-thienyl]methyl]-1,2,4-triazol-3-one]
11 | > 100000 | 0.2 | 2300 | 470 | NC/C(=C\F)Cn1ncn(Cc2ccc(C#Cc3cnc4c(c3)NC(=O)CO4)s2)c1=O [Example 138, 7-[2-[5-[[1-[(E)-2-(aminomethyl)-3-fluoro-allyl]-5-oxo-1,2,4-triazol-4-yl]methyl]-2-thienyl]ethynyl]-1H-pyrido[2,3-b][1,4]oxazin-2-one hydrochloride]
12 | > 100000 | 0.5 | 73 | 290 | NC/C(=C\F)Cn1ncn(Cc2ccc(C#Cc3cnc4c(c3)OCC(=O)N4)s2)c1=O [Example 139, 7-[2-[5-[[1-[(E)-2-(aminomethyl)-3-fluoro-allyl]-5-oxo-1,2,4-triazol-4-yl]methyl]-2-thienyl]ethynyl]-4H-pyrido[3,2-b][1,4]oxazin-3-one hydrochloride]
